Assay results: ChEMBL document CHEMBL1121986, “Spiro oxazolidinedione aldose reductase inhibitors” (J Med Chem, 1982)
Active and inactive are the calls of the source. The rule behind the calls is not given here.

Experiments:
[1] = target: T1, Aldo-keto reductase family 1 member B1 (Bos taurus, UniProt P16116); assay: Inhibitory concentration was determined against partially purified calf lens aldose reductase using glyceraldehyde as a substrate
Rattus norvegicus [2] = assay: Dose required for reduction of sorbitol accumulation in the sciatic nerve in streptozotocin-diabetic rats in vivo; Inactive; type: functional, organism-based
[3] = target: T1, Aldo-keto reductase family 1 member B1; assay: Inhibitory concentration was determined against partially purified calf lens aldose reductase using glyceraldehyde as a substrate; 10e-6/10e-7
Rattus norvegicus [4] = assay: Dose required for reduction of sorbitol accumulation in the sciatic nerve in streptozotocin-diabetic rats in vivo; type: functional
[5] = target: T1, Aldo-keto reductase family 1 member B1; assay: Inhibitory concentration was determined against partially purified calf lens aldose reductase using glyceraldehyde as a substrate; 10e-7/10e-8
[6] = target: T1, Aldo-keto reductase family 1 member B1; assay: Inhibitory concentration was determined against partially purified calf lens aldose reductase using glyceraldehyde as a substrate; 10e-4/10e-5
[7] = Rattus norvegicus, Sciatic nerve, read-out: ED50

| SMILES | IC50 [1] [µM] | ED50 (Rattus norvegicus [4]; [7]) [mg/kg] | further results |
| --- | --- | --- | --- |
| O=C1NC(=O)C2(CCCc3ccccc32)O1 (stereo not given) | 100 | – | ED50 (Rattus norvegicus [2]): inactive |
| O=C1NC(=O)C2(CCOc3ccc(Cl)cc32)O1 (stereo not given) | – | > 1.5 | IC50 [3]: 10 µM |
| O=C1NC(=O)C2(CCSc3ccc(Cl)cc32)O1 (stereo not given) | – | > 1.5 | IC50 [3]: 10 µM |
| O=C1N=C(O)OC12CCOc1ccc(Cl)cc12 (single isomer, unassigned; (-)) | 1 | – | – |
| O=C1NC(=O)C2(CCOc3c(Cl)cc(Cl)cc32)O1 (stereo in doubt; 23) | – | – | ED50 (Rattus norvegicus [4]): 1.5 mg/kg |
| O=C1N=C(O)OC12CCOc1c(Cl)cc(Cl)cc12 (single isomer, unassigned; (+)) | 100 | – | – |
| O=C1NC(=O)C2(CCOc3c(Cl)cc(Cl)cc32)O1 (stereo in doubt; 14) | – | > 1.5 | IC50 [5]: 1 µM |
| O=C1N=C(O)OC12CCOc1ccc(Cl)cc12 (single isomer, unassigned; (+)) | – | – | IC50 [6]: 1000 µM |
| O=C1NC(=O)C2(CCOc3ccc(F)cc32)O1 (stereo not given) | – | > 1.5 | IC50 [3]: 10 µM |
| Cc1cc(Cl)cc2c1OCCC21OC(=O)NC1=O (stereo not given) | – | > 1.5 | IC50 [3]: 10 µM |

Second part, led by results:

| IC50 [1] [µM] | SMILES | ED50 (Rattus norvegicus [4]; [7]) [mg/kg] | further results |
| --- | --- | --- | --- |
| 100 | O=C1NC(=O)C2(CCc3ccccc32)O1 (stereo not given) | > 25 | – |
| 100 | O=C1NC(=O)C2(CCOc3ccccc32)O1 (stereo not given) | – | – |
| 10 | O=C1NC(=O)C2(CCSc3ccc(F)cc32)O1 (stereo not given) | 25 | – |
| 1 | O=C1NC(=O)C2(CCOc3ccc(Br)cc32)O1 (stereo not given) | > 1.5 | – |
| 10 | O=C1NC(=O)C2(CCSc3ccccc32)O1 (stereo not given) | 25 | – |
